“And” between values parts separate entries of the source, which are not always exact repeats. Equal values may be shown once.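 The compound was tested at five concentrations on cells cultured in 96-well plates, with a 48-hour exposure period. Abbreviation: GI50, concentration required for 50% inhibition of growth. Definition used: TGI = concentration required for complete inhibition of growth.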
Tests used:
Assay in all cases: inhibition of tumour cell growth, NCI panel, 48 h
[1] = tested on: A549 NSCLC
[2] = tested on: BT-549 breast
[3] = tested on: HL-60(TB) leukemia
[4] = tested on: HOP-62 NSCLC
[5] = tested on: NCI/ADR-RES ovarian
[6] = tested on: OVCAR-3 ovarian
[7] = tested on: SF-268 CNS
[8] = tested on: SN12C renal
[9] = tested on: SR leukemia
[10] = tested on: UACC-62 melanoma

COc1cc(NS(C)(=O)=O)ccc1Nc1c2ccc([N+](=O)[O-])cc2nc2c(C)cccc12
GI50 [1]: 0.0345 µM | TGI [1]: 2.34 µM | GI50 [2]: 1.45 µM | TGI [2]: 7.45 µM | GI50 [3]: 0.302 µM | TGI [3]: 3.57 µM | GI50 [4]: 0.107 µM | TGI [4]: 6.37 µM | GI50 [5]: 6.95 µM | TGI [5]: 35.1 µM | GI50 [6]: 1.17 µM | TGI [6]: 9.16 µM | GI50 [7]: 0.256 µM | TGI [7]: 13.1 µM | GI50 [8]: 0.175 µM | TGI [8]: 9.26 µM | GI50 [9]: < 0.012 µM | TGI [9]: 5.82 µM | GI50 [10]: 0.377 µM | TGI [10]: 11.1 µM

O=C[C@@H](CO)O[C@H](C=O)c1c[nH]c(=O)[nH]c1=O
TGI [1]: 1020 µM | TGI [2]: 286 µM | TGI [3]: 376 µM | TGI [4]: 258 µM | TGI [5]: 536 µM | TGI [6]: 309 µM | TGI [7]: 427 µM | TGI [8]: 551 µM | TGI [9]: 614 µM | TGI [10]: 219 µM

Clc1ccc(CSC(Cn2ccnc2)c2ccc(Cl)cc2Cl)cc1 (stereo not drawn)
GI50 [1]: 1.42 µM | TGI [1]: 3.13 µM | GI50 [2]: 1.63 µM | TGI [2]: 3.05 µM | GI50 [3]: 2.15 µM | TGI [3]: 4.54 µM | GI50 [4]: 1.41 µM | TGI [4]: 2.73 µM | GI50 [5]: 1.46 µM | TGI [5]: 3.05 µM | GI50 [6]: 1.54 µM | TGI [6]: 2.87 µM | GI50 [7]: 1.66 µM | TGI [7]: 3.83 µM | GI50 [8]: 1.53 µM | TGI [8]: 2.87 µM | GI50 [9]: 2.3 µM | TGI [9]: 5.8 µM | GI50 [10]: 1.17 µM | TGI [10]: 2.43 µM

CN(C)CCOc1ccc(-c2nc(-c3ccc4c(c3)CC/C4=N\O)c(-c3ccncc3)[nH]2)cc1
GI50 [1]: 4.76 µM and 6.36 µM | TGI [1]: 9.68 µM and 32.7 µM | GI50 [2]: 4.73 µM and 15 µM | TGI [2]: 9.3 µM and 44.1 µM | GI50 [3]: 2.83 µM and 2.45 µM | TGI [3]: 7.44 µM and 14.5 µM | GI50 [4]: 4.3 µM and 4.48 µM | TGI [4]: 9.23 µM and 13.1 µM | GI50 [5]: 14.1 µM and 62.7 µM | TGI [5]: 25 µM and > 100 µM | GI50 [6]: 4.42 µM and 4.34 µM | TGI [6]: 8.49 µM and 8.94 µM | GI50 [7]: 4.38 µM and 7.26 µM | TGI [7]: 9.05 µM and 15.4 µM | GI50 [8]: 4.68 µM and 9.41 µM | TGI [8]: 8.83 µM and 25.9 µM | GI50 [9]: 5.48 µM and 3.64 µM | TGI [9]: 16.6 µM and 14.5 µM | GI50 [10]: 0.0177 µM and 0.0275 µM | TGI [10]: 2.55 µM and 0.876 µM

Cc1cc2nc(C(C)C(=O)c3ccc(Cl)cc3)c(=O)[nH]c2cc1C (stereo not drawn)
TGI [1]: > 100 µM | TGI [2]: > 100 µM | TGI [3]: > 100 µM | TGI [4]: > 100 µM | TGI [5]: > 100 µM | TGI [6]: > 100 µM | TGI [7]: > 100 µM | TGI [8]: > 100 µM | TGI [9]: 97.6 µM | TGI [10]: > 100 µM

CC[C@]12CCCN3CCc4c(n(c5ccccc45)C(=O)C1)[C@@H]32
TGI [1]: > 100 µM | TGI [2]: > 100 µM | TGI [3]: 8.51 µM | TGI [4]: > 100 µM | TGI [5]: > 34.5 µM | TGI [6]: 5.81 µM | TGI [7]: > 75 µM | TGI [8]: > 100 µM | TGI [9]: 18 µM | TGI [10]: > 100 µM

CCOC(=O)c1ccc2[nH]c(-c3ccc(S(=O)(=O)F)cc3)cc(=O)c2c1
TGI [1]: > 100 µM | TGI [2]: > 100 µM | TGI [3]: > 100 µM | TGI [4]: > 100 µM | TGI [5]: > 100 µM | TGI [6]: 50.3 µM | TGI [7]: > 100 µM | TGI [8]: > 100 µM | TGI [9]: > 100 µM | TGI [10]: 76.2 µM

O=C(O)CCNc1ccccc1C(=O)O
TGI [1]: > 100 µM | TGI [2]: > 100 µM | TGI [3]: > 100 µM | TGI [4]: > 100 µM | TGI [5]: > 100 µM | TGI [6]: > 100 µM | TGI [7]: > 100 µM | TGI [8]: > 100 µM | TGI [9]: > 100 µM | TGI [10]: > 100 µM

CC(=O)N[C@@H](Cc1ccc(OP(=O)(O)O)cc1)C(=O)N[C@H]1CCC(=O)N2CCC[C@@H](C(=O)NCc3ccc(Cl)cc3)N2C1=O
GI50 [1]: > 25 µM | TGI [1]: > 25 µM | GI50 [2]: > 25 µM | TGI [2]: > 25 µM | GI50 [3]: > 25 µM | TGI [3]: > 25 µM | GI50 [4]: > 25 µM | TGI [4]: > 25 µM | GI50 [5]: > 25 µM | TGI [5]: > 25 µM | GI50 [6]: > 25 µM | TGI [6]: > 25 µM | GI50 [7]: > 25 µM | TGI [7]: > 25 µM | GI50 [8]: > 25 µM | TGI [8]: > 25 µM | GI50 [9]: > 25 µM | TGI [9]: > 25 µM | GI50 [10]: > 25 µM | TGI [10]: > 25 µM

COc1ccc2oc(=O)cc(C(c3ccc[nH]3)c3ccc[nH]3)c2c1
GI50 [1]: 0.118 µM | TGI [1]: 10.8 µM | GI50 [2]: < 0.0505 µM | TGI [2]: 0.389 µM | GI50 [3]: < 0.0502 µM | GI50 [4]: 0.107 µM | TGI [4]: 11.7 µM | GI50 [5]: 0.0651 µM | TGI [5]: 5.91 µM | GI50 [6]: 0.0803 µM | TGI [6]: 0.146 µM | GI50 [7]: 0.129 µM | TGI [7]: 16.3 µM | GI50 [8]: 0.148 µM | TGI [8]: 15.8 µM | TGI [9]: 3.79 µM | GI50 [10]: 0.152 µM | TGI [10]: 14 µM

CC12CCC3C(CCC4Cc5[nH]c6ccccc6c5CC43C)C1CCC2O (stereo not drawn)
GI50 [1]: 2.63 µM | TGI [1]: > 100 µM | GI50 [2]: 2.65 µM | TGI [2]: > 100 µM | GI50 [3]: 0.381 µM | TGI [3]: 2.33 µM | GI50 [4]: 0.348 µM | TGI [4]: 2.57 µM | GI50 [5]: 0.481 µM | TGI [5]: 5.54 µM | GI50 [6]: 0.26 µM | TGI [6]: 0.719 µM | GI50 [7]: 2.55 µM | TGI [7]: > 100 µM | GI50 [8]: 4.09 µM | TGI [8]: > 100 µM | GI50 [9]: 0.342 µM | TGI [9]: 1.32 µM | GI50 [10]: 0.284 µM | TGI [10]: 2.35 µM

Nc1c(C(=O)c2cccc(CCCN3CCOCC3)c2)cnn1-c1ccc(F)cc1
GI50 [1]: > 25 µM | TGI [1]: > 25 µM | GI50 [2]: > 25 µM | TGI [2]: > 25 µM | GI50 [3]: > 25 µM | TGI [3]: > 25 µM | GI50 [4]: > 25 µM | TGI [4]: > 25 µM | GI50 [5]: > 25 µM | TGI [5]: > 25 µM | GI50 [6]: > 25 µM | TGI [6]: > 25 µM | GI50 [7]: > 25 µM | TGI [7]: > 25 µM | GI50 [8]: > 25 µM | TGI [8]: > 25 µM | GI50 [9]: > 25 µM | TGI [9]: > 25 µM | GI50 [10]: > 25 µM | TGI [10]: > 25 µM

CCNC(=O)[C@@H]1CCCN2C(=O)CC[C@H](NC(=O)[C@H](Cc3ccc(OP(=O)(O)O)cc3)NC(C)=O)C(=O)N12
GI50 [1]: > 25 µM | TGI [1]: > 25 µM | GI50 [2]: > 25 µM | TGI [2]: > 25 µM | GI50 [3]: > 25 µM | TGI [3]: > 25 µM | GI50 [4]: > 25 µM | TGI [4]: > 25 µM | GI50 [5]: > 25 µM | TGI [5]: > 25 µM | GI50 [6]: > 25 µM | TGI [6]: > 25 µM | GI50 [7]: > 25 µM | TGI [7]: > 25 µM | GI50 [8]: > 25 µM | TGI [8]: > 25 µM | GI50 [9]: > 25 µM | TGI [9]: > 25 µM | GI50 [10]: > 25 µM | TGI [10]: > 25 µM

O=C(NC1CCN(Cc2ccccc2)CC1)c1cc(-c2ccncc2)nc2ccc(Cl)cc12
GI50 [1]: 10.6 µM | TGI [1]: 54.2 µM | GI50 [2]: 17.2 µM | TGI [2]: 99.9 µM | GI50 [3]: 17.3 µM | TGI [3]: 59.6 µM | GI50 [4]: 14.5 µM | TGI [4]: > 100 µM | GI50 [5]: 22.2 µM | TGI [5]: > 100 µM | GI50 [6]: 15.4 µM | TGI [6]: 40.1 µM | GI50 [7]: 22.6 µM | TGI [7]: > 100 µM | GI50 [8]: 35.6 µM | TGI [8]: > 100 µM | GI50 [9]: 6.82 µM | TGI [9]: 34.8 µM | GI50 [10]: 20.6 µM | TGI [10]: > 85.3 µM
